This passage reports IC50 results from US9550774B2, “Dihydropyrido pyrimidine compounds as autotaxin inhibitors” (Eli Lilly and Company, priority 2013, dated 2017).

The target in assay [1] is recombinant human autotaxin (Homo sapiens (Human), UniProt Q13822). Kind of assay: Inhibition of Autotaxin as Measured by Choline Release. The format is biochemical. The settings on record: LPC 16:0 30 μM substrate, 37° C. for 1 hour, 4 parameter curve fit. The protocol: The purpose of this assay is to detect autotaxin inhibition using a choline release assay.
Test compound (10 mM stocks in 100% DMSO) is serially diluted in 100% DMSO resulting in 10 concentrations of 100× inhibitor in half area 96 well plates (Corning 3992). Each of these 10 wells in 100% DMSO is diluted 1:33.33 in assay buffer in round bottom 96 well plates (Fisher 12565502) resulting in 3× concentrations in well containing 3% DMSO. The assay buffer is 50 mM Tris pH8.0, 5 mM KCl, 1 mM CaCl2, 1 mM MgCl2, 0.01% TRITON™ X-100 (Sigma T9284) and 0.01% fatty acid free bovine serum albumin (Sigma A8806). A 20 μl aliquot of each 3× test compound is then added to black flat bottom 96 well plates (Corning 3991) in singlicate. A 20 μl aliquot per well of 3× recombinant human autotaxin, (Echelon, E-4000) (full length human autotaxin with a C-terminal His tag transfected into 293E cells and purified via nickel chelate and size exclusion chromatography) is then added to every well except for the no enzyme control wells. A 20 μl aliquot per well of assay buffer is added to the no enzyme control wells. […] The resorufin on the plates is measured with a SpectraMax Gemini EM fluorometer at excitation-emission wavelengths of 530-590 nm using SoftMax Pro 4.8 software. IC50s are calculated using 4 parameter curve fits. […]

A further assay addresses endogenous autotaxin (Homo sapiens (Human), UniProt Q13822). Description: Autotaxin Mediated Inhibition of LPA in the Presence of Human Plasma. Format: biochemical. The settings on record: 90% pooled human plasma, 3 hours at 37° C., total LPA by mass spec. The source says:
The following assay is intended to measure autoaxin mediated inhibition of LPA. This assay is a tool that can be used to identify autotaxin-mediated LPA inhibitor compounds when it is used to test compounds that have been identified as autotaxin inhibitors. LPA biosynthesis through autotaxin is believed to the source of LPA for LPA1 mediated neuropathic pain. Makoto Inoue, et. al, “Autotaxin, a synthetic enzyme of lysophosphatidic acid (LPA), mediates the induction of nerve-injured neuropathic pain”, Molecular Pain, 2008, 4:6. Inhibition of the autotaxin mediated LPA biosynthesis is supported by the results of this assay.
Units of plasma from healthy human female donors collected in sodium heparin (Lampire Biologicals) are pooled, aliquoted and stored at −80° C. […] A 400 μl aliquot of extraction buffer (50% methanol, 49.9% acetonitrile, 0.1% acetic acid) containing LPA internal standards (50 ng/ml D5 deuterium LPA 16:0 and 50 ng/ml D5 deuterium LPA 18:0) is added to each well and the total LPA in each sample is determined by mass spec analysis. Percent inhibition of LPA is calculated according to the following formula: 100−(3 hour plasma+test compound−0 hour plasma no test compound control)/(3 hour plasma no test compound control−0 hour plasma no test compound control)×100
[formula] IC50 values are calculated using 4 parameter curve fitting. […]

For orientation: IC50 means the concentration at which inhibition is half-maximal.

Take `O=C(c1cc(-c2cnn[nH]2)ccn1)N1CCc2nc(NC3Cc4ccccc4C3)ncc2C1` [Example 9, [2-(indan-2-ylamino)-7,8-dihydro-5H-pyrido[4,3-d]pyrimidin-6-yl]-[4-(1H-triazol-5-yl)-2-pyridyl]methanone]: the figures for the IC50 (in assay [1]; on endogenous autotaxin) were under 1.7 nM and 7 nM, respectively.

Regarding `O=C(c1cnn(Cc2c[nH]nn2)c1)N1CCc2nc(NC3Cc4ccccc4C3)ncc2C1` [Example 1, [2-(indan-2-ylamino)-7,8-dihydro-5H-pyrido[4,3-d]pyrimidin-6-yl]-[1-(1H-triazol-4-ylmethyl)pyrazol-4-yl]methanone], the IC50 is under 1.7 nM in assay [1] and 5.4 nM at endogenous autotaxin.
